In patent US12195427B2, “MASP-2 inhibitors and methods of use” (priority 2018, dated 2025):

Biological target: MASP-2 CCP2-SP (Homo sapiens (Human), UniProt O00187)
Experiment: MASP-2 co-crystallization, X-ray crystallography and structure analysis (H-bonds, van der Waals contacts);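 as to Ligand-pharmacophore element distance, pharmacophore element C2: distance from averaged pharmacophore element to bound ligand; missing value means element absent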;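 as to Ligand-pharmacophore element distance, pharmacophore element C3: distance from averaged pharmacophore element to bound ligand; missing value means element absent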;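 as to Ligand-pharmacophore element distance, pharmacophore element C4: distance from averaged pharmacophore element to bound ligand; missing value means element absent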;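 as to Ligand-pharmacophore element distance, pharmacophore element C5: distance from averaged pharmacophore element to bound ligand; missing value means element absent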
Design: van der Waals contact distance, MASP-2 HIS 483 atom CD2 / van der Waals contact distance, MASP-2 HIS 483 atom NE2 / van der Waals contact distance, SER 654 C to compound atom / van der Waals contact distance, SER 654 O to compound atom / van der Waals contact distance, TRP 655 C to compound atom / van der Waals contact distance, MASP-2 GLY 528 atom CA / van der Waals contact distance TRP 655 atom CZ3 / van der Waals contact distance TRP 655 atom N / van der Waals contact distance TRP 655 atom CE3 / van der Waals contact distance GLY 656 atom C / van der Waals contact distance GLY 656 atom CA / van der Waals contact distance GLY 656 atom O / van der Waals contact distance, MASP-2 TYR 607 atom CD1 / van der Waals contact distance, MASP-2 PRO 606 atom O / d(C3,CA1) / d(CA1,N1)2 / d(H4,O1) / d(H4,O2) / d(O1,O2) / d(CA1,O2) / d(CA6,O1) / d(CA6,O2) / d(CA1,C5) / d(O2,H3) / d(N2,C2) / d(CA5,N2) / d(N2,C4) / d(N2,C6) / d(N2,CA3) / d(N2,O3) / d(O4,H2): unit not given beside the values
Conditions: for Ligand-pharmacophore element distance, pharmacophore element C2 / Ligand-pharmacophore element distance, pharmacophore element C3 / Ligand-pharmacophore element distance, pharmacophore element C4 / Ligand-pharmacophore element distance, pharmacophore element C5 / Ligand-pharmacophore element distance, pharmacophore element C6 / Ligand-pharmacophore element distance, pharmacophore element C7 / Ligand-pharmacophore element distance, pharmacophore element CA1 / Ligand-pharmacophore element distance, pharmacophore element CA2 / Ligand-pharmacophore element distance, pharmacophore element CA3 / Ligand-pharmacophore element distance, pharmacophore element CA4 / Ligand-pharmacophore element distance, pharmacophore element CA5 / Ligand-pharmacophore element distance, pharmacophore element CA6: Table A4-1; for d(CA1,C5) / d(CA1,O1) / d(CA1,O2) / d(CA1,O4) / d(H4,O1) / d(H4,O2) / d(O1,O2) / d(O4,H2): Table A5-1 pharmacophore: distance between elements, S2/S1 region; for d(N2,C2) / d(N2,CA2) / d(O2,H3) / d(O2,N2): Table A5-2 pharmacophore distance, S3/S4 region; for a(O1, O2, H3) / a(O1, O2, N2) / a(O2, N2, C2) / a(O2, N2, CA2): Table A6-2 pharmacophore angle; for Pharmacophore torsion angle a(C5, CA1, O1, H4) / Pharmacophore torsion angle a(H4, O1, O2, H3) / Pharmacophore torsion angle a(H4, O1, O2, N2) / Pharmacophore torsion angle a(O1, H4, O2, CA1) / Pharmacophore torsion angle a(O1, O2, N2, C2): Table A7-1; for Pharmacophore torsion angle a(C5, CA1, O1, H4) / Pharmacophore torsion angle a(H4, O1, O2, H3) / Pharmacophore torsion angle a(H4, O1, O2, N2) / Pharmacophore torsion angle a(O1, H4, O2, CA1) / Pharmacophore torsion angle a(O1, O2, N2, C2) / Pharmacophore torsion angle a(O1, O2, N2, CA2): between pharmacophore elements of the bound compound; for Pharmacophore torsion angle a(O1, O2, N2, CA2): Table A7-2
Method in brief: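 First, CCP2-SP constructs with or without a 6His tag are produced in E. coli. Crystals are then soaked once or twice with inhibitor, cryoprotected in 20% glycerol or frozen directly, and diffracted at synchrotron beamlines. Phasing uses molecular replacement with parts of 1Q3X.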

Sequence of MASP-2 CCP2-SP (O00187 445-686): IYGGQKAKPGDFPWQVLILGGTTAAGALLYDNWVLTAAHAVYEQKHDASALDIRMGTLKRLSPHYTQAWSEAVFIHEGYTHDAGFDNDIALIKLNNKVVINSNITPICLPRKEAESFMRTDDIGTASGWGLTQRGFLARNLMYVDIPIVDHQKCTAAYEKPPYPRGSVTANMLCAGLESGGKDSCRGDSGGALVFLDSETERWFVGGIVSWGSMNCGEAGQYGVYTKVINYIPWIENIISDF
Sequence of MASP-2 CCP2-SP (O00187 364-432 partner): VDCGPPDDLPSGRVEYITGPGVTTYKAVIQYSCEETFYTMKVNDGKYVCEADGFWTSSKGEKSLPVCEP

C[C@H](NC(=O)[C@H]1C[C@@H](c2ccccc2)CCN1)C(=O)NCc1cc(Cl)ccc1O.Cl [1078_5]
Ligand-pharmacophore element distance, pharmacophore element C2: 0.71
Ligand-pharmacophore element distance, pharmacophore element C3: 0
Ligand-pharmacophore element distance, pharmacophore element C4: 0
Ligand-pharmacophore element distance, pharmacophore element C5: 0.42
Ligand-pharmacophore element distance, pharmacophore element C6: 0
Ligand-pharmacophore element distance, pharmacophore element C7: 0
Ligand-pharmacophore element distance, pharmacophore element CA1: 1.76
Ligand-pharmacophore element distance, pharmacophore element CA2: 0.6
Ligand-pharmacophore element distance, pharmacophore element CA3: 0
Ligand-pharmacophore element distance, pharmacophore element CA4: 0
Ligand-pharmacophore element distance, pharmacophore element CA5: 0
Ligand-pharmacophore element distance, pharmacophore element CA6: 0
d(CA1,C5): 3.12
d(CA1,O1): 4.48
d(CA1,O2): 4.88
d(CA1,O4): 2.72
d(H4,O1): 2.40
d(H4,O2): 2.46
d(O1,O2): 3.41
d(O4,H2): 0.98
d(N2,C2): 1.45
d(N2,CA2): 5.65
d(O2,H3): 3.24
d(O2,N2): 2.95
a(C5, CA1, O1) (Table A6-1 pharmacophore angle): 164.79
a(CA1, O1, O2) (Table A6-1 pharmacophore angle): 117.54
a(CA1, O4, H2) (Table A6-1 pharmacophore angle): 131.80
a(O1, CA1, O4) (Table A6-1 pharmacophore angle): 55.67
a(O1, O2, H4) (Table A6-1 pharmacophore angle): 90.82
a(O1, O2, H3): 138.56
a(O1, O2, N2): 141.15
a(O2, N2, C2): 114.27
a(O2, N2, CA2): 151.79
Pharmacophore torsion angle a(C5, CA1, O1, H4): 21.83
Pharmacophore torsion angle a(H4, O1, O2, H3): −119.72
Pharmacophore torsion angle a(H4, O1, O2, N2): −115.76
Pharmacophore torsion angle a(O1, H4, O2, CA1): −52.04
Pharmacophore torsion angle a(O1, O2, N2, C2): 148.01
Pharmacophore torsion angle a(O1, O2, N2, CA2): 149.21

Cc1nc(N)ccc1CNC(=O)[C@H](C)NC(=O)[C@H]1C[C@H](Cc2cccc(Cl)c2)CN1 [compound 1328, (2R,4S)—N—((S)-1-(((6-amino-2-methylpyridin-3-yl)methyl)amino)-1-oxopropan-2-yl)-4-(3-chlorobenzyl)pyrrolidine-2-carboxamide]
H-bond distance to MASP-2 GLY 656 atom N (Table A1 (H-Bonds), GLY 656 N): 3.33
H-bond distance to MASP-2 GLY 656 atom O (Table A1 (H-Bonds), GLY 656 O): 2.82
H-bond distance to MASP-2 SER 628 atom O (Table A1 (H-Bonds), SER 628 O): 3.06
H-bond distance to MASP-2 SER 654 atom O (Table A1 (H-Bonds), SER 654 O): 2.67
H-bond distance to MASP-2 SER 657 atom O (Table A1 (H-Bonds), SER 657 O): 2.44
van der Waals contact distance, MASP-2 HIS 483 atom CD2 (Table A2-1): 3.79
van der Waals contact distance, MASP-2 HIS 483 atom NE2 (Table A2-1): 3.73
van der Waals contact distance, MASP-2 PHE 529 atom CD1 (Table A2-3): 3.78
van der Waals contact distance, SER 654 C to compound atom (Table A2-11): 3.62
van der Waals contact distance, VAL 653 CG1 to compound atom (Table A2-11): 3.23
van der Waals contact distance TRP 655 atom CE3 (Table A2-13, MASP-2 TRP 655 CE3, compound atom in line below): 3.49
van der Waals contact distance TRP 655 atom CZ3 (Table A2-13, MASP-2 TRP 655 CZ3): 3.53

CC(NC(=O)C1CC(Cc2ccccc2)CN1)C(=O)NCc1cnc2c(c1)c(Cl)cn2C.Cl.Cl (mixture of isomers) [1450_A]
Ligand-pharmacophore element distance, pharmacophore element C2: 0
Ligand-pharmacophore element distance, pharmacophore element C3: 0
Ligand-pharmacophore element distance, pharmacophore element C4: 0
Ligand-pharmacophore element distance, pharmacophore element C5: 0.34
Ligand-pharmacophore element distance, pharmacophore element C6: 0
Ligand-pharmacophore element distance, pharmacophore element C7: 0.72
Ligand-pharmacophore element distance, pharmacophore element CA1: 1.03
Ligand-pharmacophore element distance, pharmacophore element CA2: 0.4
Ligand-pharmacophore element distance, pharmacophore element CA3: 0
Ligand-pharmacophore element distance, pharmacophore element CA4: 0
Ligand-pharmacophore element distance, pharmacophore element CA5: 0
Ligand-pharmacophore element distance, pharmacophore element CA6: 0
d(CA1,C5): 3.55
d(CA1,O1): 5.47
d(CA1,O2): 4.73
d(CA1,O4): 1.75
d(H4,O1): 3.16
d(H4,O2): 3.57
d(O1,O2): 3.11
d(N2,CA2): 5.88
d(O2,H3): 2.31
d(O2,N2): 2.81
a(C5, CA1, O1) (Table A6-1 pharmacophore angle): 150.97
a(CA1, O1, O2) (Table A6-1 pharmacophore angle): 94.14
a(O1, CA1, C7) (Table A6-1 pharmacophore angle): 136.18
a(O1, CA1, O4) (Table A6-1 pharmacophore angle): 68.80
a(O1, O2, H4) (Table A6-1 pharmacophore angle): 125.38
a(O1, O2, H3): 127.40
a(O1, O2, N2): 139.62
a(O2, N2, CA2): 154.51
Pharmacophore torsion angle a(O1, O2, N2, CA2): 120.74

C[C@H](NC(=O)[C@H]1C[C@@H](c2ccccc2)CCN1)C(=O)NCc1cc(Cl)ccc1O.Cl [1078_2]
Ligand-pharmacophore element distance, pharmacophore element C2: 0.61
Ligand-pharmacophore element distance, pharmacophore element C3: 0
Ligand-pharmacophore element distance, pharmacophore element C4: 0
Ligand-pharmacophore element distance, pharmacophore element C5: 0.46
Ligand-pharmacophore element distance, pharmacophore element C6: 0
Ligand-pharmacophore element distance, pharmacophore element C7: 0
Ligand-pharmacophore element distance, pharmacophore element CA1: 1.55
Ligand-pharmacophore element distance, pharmacophore element CA2: 0.61
Ligand-pharmacophore element distance, pharmacophore element CA3: 0
Ligand-pharmacophore element distance, pharmacophore element CA4: 0
Ligand-pharmacophore element distance, pharmacophore element CA5: 0
Ligand-pharmacophore element distance, pharmacophore element CA6: 0
d(CA1,C5): 3.12
d(CA1,O1): 4.69
d(CA1,O2): 4.62
d(CA1,O4): 2.75
d(H4,O1): 2.19
d(H4,O2): 2.44
d(O1,O2): 3.25
d(O4,H2): 0.97
d(N2,C2): 1.44
d(N2,CA2): 5.72
d(O2,H3): 2.53
d(O2,N2): 2.72
a(C5, CA1, O1) (Table A6-1 pharmacophore angle): 159.94
a(CA1, O1, O2) (Table A6-1 pharmacophore angle): 109.26
a(CA1, O4, H2) (Table A6-1 pharmacophore angle): 128.74
a(O1, CA1, O4) (Table A6-1 pharmacophore angle): 65.74
a(O1, O2, H4) (Table A6-1 pharmacophore angle): 91.16
a(O1, O2, H3): 141.98
a(O1, O2, N2): 146.00
a(O2, N2, C2): 128.07
a(O2, N2, CA2): 155.89
Pharmacophore torsion angle a(C5, CA1, O1, H4): 38.04
Pharmacophore torsion angle a(H4, O1, O2, H3): −132.87
Pharmacophore torsion angle a(H4, O1, O2, N2): −119.25
Pharmacophore torsion angle a(O1, H4, O2, CA1): −57.88
Pharmacophore torsion angle a(O1, O2, N2, C2): 127.17
Pharmacophore torsion angle a(O1, O2, N2, CA2): 137.47
